Test results as given in patent publication US20210127726A1, “METHODS FOR IMPROVING THE SOLUBILITY OF STEVIOL GLYCOSIDE MIXTURES, AND USES” (The Coca-Cola Company, priority 2018, published 2021).

Test: Aqueous solubility of steviol glycosides and blends
Type: physicochemical
Description: A number of methods are known in the art for determining aqueous solubility. In one such method, solubility can be determined by a solvent addition method in which a weighed sample is treated with aliquots of aqueous solvent. The mixture is generally vortexed and/or sonicated between additions to facilitate dissolution. Complete dissolution of the test material is determined by visual inspection. Solubility is calculated based on the total solvent used to provide complete dissolution.
Another method for determining solubility is by measuring the turbidity (NTU units) of a composition using a turbidimeter, such as HACH 2100 AN. In a typical experiment, a portion of the composition to be measured is added to a portion of aqueous solvent (or visa versa) at room temperature. Turbidity is measured after waiting from 2-10 minutes to observe visual dissolution of the portion. Then, another portion of the composition is added, dissolution is observed and turbidity is measured again. This process is repeated until turbidity reaches exceeds beyond acceptable values, typically around 4 NTU-10 NTU. While turbidity measurements can be very useful in determining solubility, it will not detect solids collected on the bottom of a container. Accordingly, it is important to shake the container prior to determining turbidity and confirm a given turbidity measurement with visual inspection of dissolution. […]

aqueous solubility [wt %] | Structure (SMILES)
0.1 | C=C1C[C@@]23CC[C@H]4[C@@](C)(CCC[C@@]4(C)C(=O)O[C@@H]4O[C@H](CO)[C@@H](O)[C@H](O[C@@H]5O[C@H](CO)[C@@H](O)[C@H](O)[C@H]5O)[C@H]4O[C@@H]4O[C@H](CO)[C@@H](O)[C@H](O)[C@H]4O)[C@@H]2CC[C@]1(O[C@@H]1O[C@H](CO)[C@@H](O)[C@H](O[C@@H]2O[C@H](CO)[C@@H](O)[C@H](O)[C@H]2O)[C@H]1O[C@@H]1O[C@H](CO)[C@@H](O)[C@H](O)[C@H]1O)C3 [Pure reb M, 13-[(2-O-β-D-glucopyranosyl-3-O-β-D-glucopyranosyl-β-D-glucopyranosyl)oxy] ent kaur-16-en-19-oic acid-[(2-O-β-D-glucopyranosyl-3-O-β-D-glucopyranosyl-β-D-glucopyranosyl) ester]]
0.05 | C=C1C[C@@]23CC[C@H]4[C@@](C)(CCC[C@@]4(C)C(=O)O[C@@H]4O[C@H](CO)[C@@H](O)[C@H](O)[C@H]4O[C@@H]4O[C@H](CO)[C@@H](O)[C@H](O)[C@H]4O)[C@@H]2CC[C@]1(O[C@@H]1O[C@H](CO)[C@@H](O)[C@H](O[C@@H]2O[C@H](CO)[C@@H](O)[C@H](O)[C@H]2O)[C@H]1O[C@@H]1O[C@H](CO)[C@@H](O)[C@H](O)[C@H]1O)C3 [Pure reb D, rebaudioside D]
